Legend:
[1] = tested on: harmful plants such as Stellaria media, Lolium multiflorum, Amaranthus retroflexus, Sinapis alba, Avena sativa and Setaria viridis; assay: Pre-emergence effect on weeds (greenhouse pot test, visual scoring); format: in vivo; conditions: applied pre-emergence at an application rate of 1 kg or less of active substance per hectare; scored visually after 3 to 4 weeks vs untreated controls;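 also: scored as plant damage or reduced emergence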
Excerpt: 1 Pre-emergence Effect on Weeds
Seeds or rhizome pieces of monocotyledonous and dicotyledonous weeds plants are placed in sandy loam soil in plastic pots and covered with soil. The compounds according to the invention which are formulated in the form of wettable powders or emulsion concentrates are then applied to the surface of the soil cover in the form of an aqueous suspension or emulsion at an application rate of 600 to 800 l of water/ha (converted), in various dosages.

[2] = tested on: harmful plants such as Sinapis alba, Echinochloa crus- galli, Lolium multiflorum, Stellaria media, Cyperus iria, Amaranthus retroflexus, Setaria viridis and …; assay: Post-emergence effect on weeds (greenhouse pot test, visual scoring); format: in vivo; conditions: applied post-emergence (three-leaf stage) at an application rate of 1 kg and less of active substance per hectare; scored visually after about 3 to 4 weeks vs untreated controls
Description: 2. Post-emergence Effect on Weeds
Seeds or rhizome pieces of monocotyledonous and dicotyledonous weeds are placed in sandy loam soil in plastic pots, covered with soil and grown in the greenhouse under good growth conditions. Three weeks after sowing, the test plants are treated in the three-leaf stage. The compounds according to the invention which are formulated as wettable powders or as emulsion concentrates are sprayed in various dosages on the green parts of the plants at an application rate of 600 to 800 l of water/ha (converted). After the test plants have remained in the greenhouse for about 3 to 4 weeks under ideal growth conditions, the effect of the preparations is scored visually by comparison with untreated controls. The agents according to the invention also have a good herbicidal post-emergence action against a broad range of economically important grass weeds and dicotyledonous weeds.

For `COc1cccc(CCC(CC2CC2)Nc2nc(N)nc(C(C)C)n2)c1` (stereo not drawn) [Example 32-11], the “herbicidal action against harmful plants, pre-emergence” value (“herbicidal action … pre-emergence” for short) [1] was “very good herbicidal action” and the “herbicidal action against harmful plants, post-emergence” value (“herbicidal action … post-emergence” for short) [2] was “very good herbicidal action”.

With `CC(C)(F)c1nc(N)nc(NC(CCc2cccc(Cl)c2)C2CC2)n1` (stereo not drawn) [Example 9-8] the “herbicidal action … pre-emergence” value [1] was “very good herbicidal action” and the “herbicidal action … post-emergence” value [2] was “very good herbicidal action”.

With `CC(C)c1nc(N)nc(NC(CCc2ccccc2)C2CCCO2)n1` (stereo not drawn) [Example 19-6] the “herbicidal action … pre-emergence” value [1] was “very good herbicidal action” and the “herbicidal action … post-emergence” value [2] was “very good herbicidal action”.

For `Nc1nc(NC(CCc2ccccc2)C2CC2)nc(-c2ccccc2)n1` (stereo not drawn) [Example 9-19], the “herbicidal action … pre-emergence” value [1] was “very good herbicidal action” and the “herbicidal action … post-emergence” value [2] was “very good herbicidal action”.

For `CC(C)Cc1nc(N)nc(NC(CCCc2ccccc2)C2CCC2)n1` (stereo not drawn) [Example 28-5], the “herbicidal action … pre-emergence” value [1] was “very good herbicidal action” and the “herbicidal action … post-emergence” value [2] was “very good herbicidal action”.

`CC(C)c1nc(N)nc(NC(CCCc2ccccc2)C2CC2)n1` (stereo not drawn) [Example 22-11] was tested, and the “herbicidal action … pre-emergence” value [1] was “very good herbicidal action” and the “herbicidal action … post-emergence” value [2] was “very good herbicidal action”.

`Cc1cc(C)cc(CCCC(Nc2nc(N)nc(C(C)(C)F)n2)C2CC2)c1` (stereo not drawn) [Example 22-28, 2-Amino-4-(1-fluoro-1-methylethyl)-6-[4-(3,5-dimethylphenyl)-1-cyclopropyl-1-butylamino]-1,3,5-triazine] was tested, and the “herbicidal action … pre-emergence” value [1] was “very good herbicidal action” and the “herbicidal action … post-emergence” value [2] was “very good herbicidal action”.

`Cc1cccc(CCC(Nc2nc(C)nc(N)n2)C2CCC2)c1` (stereo not drawn) [Example 4-29, 2-Amino-6-methyl-4-[3-(3-methylphenyl)-1-cyclobutyl-1-propylamino]1,3,5-triazine] was tested, and the “herbicidal action … pre-emergence” value [1] was “very good herbicidal action” and the “herbicidal action … post-emergence” value [2] was “very good herbicidal action”.

For `Cc1cc(C)cc(CCC(Nc2nc(N)nc(C(C)(C)F)n2)C2CC2)c1` (stereo not drawn) [Example 9-17, 2-Amino-4-(1-fluoro-1-methylethyl)-6-[3-(3,5-dimethylphenyl)-1-cyclopropyl-1-propylamino]-1,3,5-triazine], the “herbicidal action … pre-emergence” value [1] was “very good herbicidal action” and the “herbicidal action … post-emergence” value [2] was “very good herbicidal action”.

In the case of `CC(C)(F)c1nc(N)nc(NC(CCCc2cccc(Cl)c2)C2CCC2)n1` (stereo not drawn) [Example 28-14], the “herbicidal action … pre-emergence” value [1] is reported as “very good herbicidal action” and the “herbicidal action … post-emergence” value [2] is reported as “very good herbicidal action”.

`CC(C)c1nc(N)nc(NC(C=Cc2ccccc2)C2CC2)n1` (stereo not drawn) [Example 44-2] was tested, and the “herbicidal action … pre-emergence” value [1] was “very good herbicidal action” and the “herbicidal action … post-emergence” value [2] was “very good herbicidal action”.

For `CC(C)(F)c1nc(N)nc(NC(CCc2ccccc2)c2ccccc2)n1` (stereo not drawn) [Example 18-3], the “herbicidal action … pre-emergence” value [1] was “very good herbicidal action” and the “herbicidal action … post-emergence” value [2] was “very good herbicidal action”.

`COc1cccc(CCCC(Nc2nc(N)nc(C(C)(C)F)n2)C2CCC2)c1` (stereo not drawn) [Example 28-21] was tested, and the “herbicidal action … pre-emergence” value [1] was “very good herbicidal action” and the “herbicidal action … post-emergence” value [2] was “very good herbicidal action”.

With `Cc1cccc(CCC(CC2CC2)Nc2nc(N)nc(C(C)(C)F)n2)c1` (stereo not drawn) [Example 32-10] the “herbicidal action … pre-emergence” value [1] was “very good herbicidal action” and the “herbicidal action … post-emergence” value [2] was “very good herbicidal action”.

`COc1cccc(CCCC(Nc2nc(N)nc(C(C)(C)F)n2)C2CC2)c1` (stereo not drawn) [Example 22-30] was tested, and the “herbicidal action … pre-emergence” value [1] was “very good herbicidal action” and the “herbicidal action … post-emergence” value [2] was “very good herbicidal action”.

`CC(C)(F)c1nc(N)nc(NC(CCc2cccc(Cl)c2)C2CCC2)n1` (stereo not drawn) [Example 4-11] was tested, and the “herbicidal action … pre-emergence” value [1] was “very good herbicidal action” and the “herbicidal action … post-emergence” value [2] was “very good herbicidal action”.

For `CC(C)(F)c1nc(N)nc(NC(CCc2ccccc2)C2CCOC2)n1` (stereo not drawn) [Example 20-1], the “herbicidal action … pre-emergence” value [1] was “very good herbicidal action” and the “herbicidal action … post-emergence” value [2] was “very good herbicidal action”.

With `CC(C)(F)c1nc(N)nc(NC(CCc2ccccc2)CC2CC2(F)F)n1` (stereo not drawn) [Example 33-2] the “herbicidal action … pre-emergence” value [1] was “very good herbicidal action” and the “herbicidal action … post-emergence” value [2] was “very good herbicidal action”.

In the case of `Cc1cccc(CCCC(Nc2nc(N)nc(C(C)C)n2)C2CCC2)c1` (stereo not drawn) [Example 28-17], the “herbicidal action … pre-emergence” value [1] is reported as “very good herbicidal action” and the “herbicidal action … post-emergence” value [2] is reported as “very good herbicidal action”.

With `CC(C)(F)c1nc(N)nc(NC(CCCc2ccccc2)C2CC2)n1` (stereo not drawn) [Example 22-12, 2-Amino-4-(1-fluoro-1-methylethyl)-6-(1-phenyl-4-cyclopropyl-4-butylamino)-1,3,5-triazine] the “herbicidal action … pre-emergence” value [1] was “very good herbicidal action” and the “herbicidal action … post-emergence” value [2] was “very good herbicidal action”.

For `Cc1nc(N)nc(NC(CCc2ccccc2)C2CC2)n1` (stereo not drawn) [Example 9-3], the “herbicidal action … pre-emergence” value [1] was “very good herbicidal action” and the “herbicidal action … post-emergence” value [2] was “very good herbicidal action”.

With `CC(C)c1nc(N)nc(NC(CCCc2cccc(F)c2)C2CC2)n1` (stereo not drawn) [Example 22-25] the “herbicidal action … pre-emergence” value [1] was “very good herbicidal action” and the “herbicidal action … post-emergence” value [2] was “very good herbicidal action”.

For `CC(C)c1nc(N)nc(NC(CCc2ccccc2)c2ccccc2)n1` (stereo not drawn) [Example 18-4], the “herbicidal action … pre-emergence” value [1] was “very good herbicidal action” and the “herbicidal action … post-emergence” value [2] was “very good herbicidal action”.

`CC(C)c1nc(N)nc(NC(CCCc2ccccc2)C2CCC2)n1` (stereo not drawn) [Example 28-4] was tested, and the “herbicidal action … pre-emergence” value [1] was “very good herbicidal action” and the “herbicidal action … post-emergence” value [2] was “very good herbicidal action”.

In the case of `COc1cccc(CCCC(Nc2nc(N)nc(C(C)C)n2)C2CC2)c1` (stereo not drawn) [Example 22-29], the “herbicidal action … pre-emergence” value [1] is reported as “very good herbicidal action” and the “herbicidal action … post-emergence” value [2] is reported as “very good herbicidal action”.

With `Cc1cc(C)cc(CCC(Nc2nc(N)nc(C(C)C)n2)C2CC2)c1` (stereo not drawn) [Example 9-18] the “herbicidal action … pre-emergence” value [1] was “very good herbicidal action” and the “herbicidal action … post-emergence” value [2] was “very good herbicidal action”.

For `CC(C)(F)c1nc(N)nc(NC(C=Cc2ccccc2)C2CC2)n1` (stereo not drawn) [Example 44-1], the “herbicidal action … pre-emergence” value [1] was “very good herbicidal action” and the “herbicidal action … post-emergence” value [2] was “very good herbicidal action”.

With `CC(C)(F)c1nc(N)nc(NC(CCCc2cccc(Cl)c2)C2CC2)n1` (stereo not drawn) [Example 22-18] the “herbicidal action … pre-emergence” value [1] was “very good herbicidal action” and the “herbicidal action … post-emergence” value [2] was “very good herbicidal action”.

With `CC(C)(F)c1nc(N)nc(NC(CCCc2ccccc2)C2CCC2)n1` (stereo not drawn) [Example 28-10] the “herbicidal action … pre-emergence” value [1] was “very good herbicidal action” and the “herbicidal action … post-emergence” value [2] was “very good herbicidal action”.

In the case of `CC(C)(F)c1nc(N)nc(NC(CCc2ccccc2)CC2CC2)n1` (stereo not drawn) [Example 32-2], the “herbicidal action … pre-emergence” value [1] is reported as “very good herbicidal action” and the “herbicidal action … post-emergence” value [2] is reported as “very good herbicidal action”.
